According to paper PMC8569227 (Frontiers in Plant Science, 2021):
Several values for one entry are separate records, joined by “and”; a condition that tells them apart may be missing. Equal entries are not always repeated. Where two headings read alike, the source gives them in different places.

Columns and labels:
[1] = biological target: T1, Arabidopsis thaliana AOX1A (rAtAOX1A) (Arabidopsis thaliana, UniProt Q39219); type: biochemical; settings: for Fold change of oxygen consumption rate of rAtAOX1A vs control / Effect on oxygen consumption rate of rAtAOX1A (in words): 10 mM effector, membrane-bound protein, 1 mM NADH; for Fold change of oxygen consumption rate of rAtAOX1A vs control: 1 mM KCN (Figure 5C); for Effect on oxygen consumption rate of rAtAOX1A (in words): 1 mM KCN (Figure 5)
T1 sequence (Q39219 63-354): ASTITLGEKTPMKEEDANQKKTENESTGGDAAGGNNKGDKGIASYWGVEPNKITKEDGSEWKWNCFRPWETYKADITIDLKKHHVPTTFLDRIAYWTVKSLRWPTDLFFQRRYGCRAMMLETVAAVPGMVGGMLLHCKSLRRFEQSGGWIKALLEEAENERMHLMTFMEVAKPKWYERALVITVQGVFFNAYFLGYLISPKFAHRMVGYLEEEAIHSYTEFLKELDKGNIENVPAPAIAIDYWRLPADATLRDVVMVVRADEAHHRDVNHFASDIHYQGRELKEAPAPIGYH

[2] = biological target: T1, Arabidopsis thaliana AOX1A (rAtAOX1A); test: biochemical; settings: rAtAOX1A IC50, membrane-bound protein, 300 μM NADH, MOPS buffer pH 7.5
[3] = biological target: T2, recombinant Trypanosoma brucei AOX (rTAO) (Trypanosoma brucei brucei, UniProt Q26710); type: biochemical
T2 sequence (Q26710 25-329): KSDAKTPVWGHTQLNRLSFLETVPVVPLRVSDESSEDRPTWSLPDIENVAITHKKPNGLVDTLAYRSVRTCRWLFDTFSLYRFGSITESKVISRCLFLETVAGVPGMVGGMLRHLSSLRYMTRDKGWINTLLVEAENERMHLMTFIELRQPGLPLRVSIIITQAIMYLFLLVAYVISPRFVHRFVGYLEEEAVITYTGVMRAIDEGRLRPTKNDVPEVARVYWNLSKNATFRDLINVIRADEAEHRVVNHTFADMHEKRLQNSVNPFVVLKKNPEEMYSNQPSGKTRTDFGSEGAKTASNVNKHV

[4] = biological target: T2, recombinant Trypanosoma brucei AOX (rTAO); test: biochemical; settings: rTAO IC50, membrane-bound protein, 300 μM NADH, MOPS buffer pH 7.5
[5] = biological target: T1, Arabidopsis thaliana AOX1A (rAtAOX1A); type: biochemical
Procedure: (§1) Kinetic analysis of the purified rTAO and rAtAOX1A was performed spectrophotometrically using a Cary 4000 UV spectrophotometer (Varian, UK Ltd, Surrey UK) with the packaged software. All assays were performed in 65 mM MOPS buffer pH 7.5 with different concentrations of quinol-1 as the substrate, measuring the conversion of Q1H2 (ubiquinol-1) to Q1 (ubiquinone-1) at 278 nm (ε = 15,000 M^−1 cm^−1). Q1 was reduced to Q1H2 prior to experimentation via sonication with zinc powder under an inert atmosphere for ~10 min, with the resultant zinc then being removed via centrifugation at 2,000 g.

[6] = biological target: T2, recombinant Trypanosoma brucei AOX (rTAO); test: Quinol kinetics of purified rTAO, Q1H2 oxidation at 278 nm; type: biochemical; settings: MOPS pH 7.5
Procedure: as §1

O=CC(=O)O [glyoxylate]
Fold change of oxygen consumption rate of rAtAOX1A vs control [1]: more than 7 fold

Nc1nc2c(ncn2[C@@H]2O[C@H](COP(=O)(O)OP(=O)(O)O)[C@@H](O)[C@H]2O)c(=O)[nH]1 [GDP]
Fold change of oxygen consumption rate of rAtAOX1A vs control [1]: 1.4 fold

CC(C)=CCC/C(C)=C/Cc1c(O)c(Cl)c(C)c(C=O)c1O [CB, colletochlorin B]
IC50 [2]: 2.82 nM and 2.8 nM

O=O [O2, oxygen]
Km ([3]; membrane samples, 25°C, 1.25 mM NADH, without pyruvate, read-out: Km for O2, rTAO): 1.15 µM | Km ([1]; membrane samples, 25°C, 1.25 mM NADH, without pyruvate, read-out: Km for O2, rAtAOX1A): 2.41 µM

CCCCCCCCOC(=O)c1cc(O)c(O)c(O)c1 [OG, octylgallate]
IC50 [4]: 417 nM | IC50 [2]: 1580 nM

CC(/C=C/[C@@]1(C)[C@H](C)CCC(=O)[C@@H]1C)=C\Cc1c(O)c(Cl)c(C)c(C=O)c1O [AC, ascochlorin]
IC50 [4]: 3.8 nM and 3.7 nM | IC50 [2]: 14.7 nM

CC(=O)C(=O)O [pyruvate]
Activation of oxygen consumption rate of rTAO (in words) ([3]; 10 mM effector, membrane-bound protein): but not that of rTAO | Fold change of oxygen consumption rate of rAtAOX1A vs control [1]: more than 7 fold | Respiratory rate of rAtAOX1A with vs without pyruvate ([1]; 10 mM pyruvate, membrane samples, 1.25 mM NADH (Figure 4)): ~ 6 fold | Change of Km for O2 of rAtAOX1A ([1]; 10 mM pyruvate, membrane-bound protein (Figure 4)): increased Km value for O2 | Change of Km for Q1H2 of rAtAOX1A ([5]; 10 mM pyruvate during purification and in the assay, purified protein): remained unchanged | Change of Vmax of rAtAOX1A ([5]; 10 mM pyruvate during purification and in the assay, purified protein, Q1H2 substrate): increased approximately five times

CC(C)=CCc1c(O)c(Cl)c(C)c(C=O)c1O [CD, colletochlorin D]
IC50 [4]: 3.73 nM and 3.8 nM | IC50 [2]: 5.76 nM

CC(=O)O [acetic acid]
Effect on oxygen consumption rate of rAtAOX1A (in words) [1]: no stimulation

Nc1ncnc2c1ncn2[C@@H]1O[C@H](COP(=O)(O)OP(=O)(O)O)[C@@H](O)[C@H]1O [ADP, adenosine diphosphate]
Fold change of oxygen consumption rate of rAtAOX1A vs control [1]: 1.4 fold

O=C(O)CC(=O)C(=O)O [oxaloacetate]
Effect on oxygen consumption rate of rAtAOX1A (in words) [1]: dramatically promoted

CCC(=O)O [propanoic acid]
Effect on oxygen consumption rate of rAtAOX1A (in words) [1]: no stimulation

O=C(NO)c1ccccc1O [SHAM, salicylic hydroxamic acid]
IC50 [2]: 33000 nM

COc1c(O)c(C)c(CC=C(C)C)c(O)c1OC [Q1H2, ubiquinol-1]
Km [6]: 451 µM | Km ([5]; purified rAtAOX1A, without pyruvate, MOPS pH 7.5, read-out: Km for Q1H2, rAtAOX1A): 26 µM

O=C(O)CCC(=O)O [succinate]
Effect on oxygen consumption rate of rAtAOX1A (in words) [1]: dramatically promoted

C/C(=C\Cc1c(O)c(Cl)c(C)c(C=O)c1O)CC/C=C(\C)[C@@H]1CC(=O)C(C)(C)O1 [AF, ascofuranone]
IC50 [2]: 6.21 nM
